Values after ≈ are worked out from the molar mass of the structure shown. “Also recorded” adds a separate entry of the source. Structures can show the parent of a compound that is named as a salt. Where two headings read alike, the source gives them in different places.
What was measured:
[1] = Stability of aqueous solutions of combination formulation at pH 5.0; type: physicochemical; details: pH 5.0 at 25° C.
[2] = system: Elizabethkingia meningoseptica; assay: MIC testing, Elizabethkingia meningoseptica; type: cell-based; details: for MIC50 / MIC90: Elizabethkingia meningoseptica
[3] = system: Stenotrophomonas maltophilia; assay: MIC testing, Stenotrophomonas maltophilia; type: cell-based; details: for MIC90 / MIC50: Stenotrophomonas maltophilia
From the text: Stenotrophomonas maltophilia is a Gram negative bacillus. It is an opportunistic MDR pathogen. It has been linked to infections with high morbidity and mortality in severely immunocompromised and debilitated individuals.

[4] = system: Pseudomonas aeruginosa; assay: MIC testing, Pseudomonas aeruginosa isolates non-susceptible to meropenem; type: cell-based; details: for % S@8: 507 isolates non-susceptible to meropenem; for MIC50 / MIC90: Pseudomonas aeruginosa
[5] = system: Pseudomonas aeruginosa; assay: MIC testing, Pseudomonas aeruginosa isolates non-susceptible to cefepime; type: cell-based; details: for % S@8: 554 isolates non-susceptible to cefepime; for MIC50 / MIC90: Pseudomonas aeruginosa
[6] = Solubility of Compound 1-dihydrochloride in IPA/water mixtures; type: physicochemical; details: IPA/water mixture, aqueous with cosolvent or surfactant or cyclodextrin, thermodynamic from solid
Protocol: In order to design a re-crystallization process for Compound 1-dihydrochloride salt from water as solvent and IPA as anti-solvent, the solubility of the API in these combinations were determined. Suspensions in various water/IPA mixtures were prepared and incubated for 24 hours at 5°, 25°, 40° and 50° C. Upon completion of the incubation time the solids were separated from the mother liquors by centrifugation and filtration and the concentration of Compound 1 in solution was determined by HPLC analysis. The remaining solids were analyzed by HT-XRPD.

[7] = Physical stability of Compound 1-dihydrochloride at four temperature/RH conditions; type: physicochemical
Protocol: A physical stability study of Compound 1-dihydrochloride (mixture of Form 1 and Form 2) was conducted. A solid sample of Compound 1-dihydrochloride was incubated under four relative humidity and temperature conditions: 5° C./ambient RH, 25° C./60% RH, 30° C./65% RH and 40° C./75% RH. At regular intervals, the compound was analyzed by HR-XRPD and TGMS. […] The water content is in line with the monohydrate nature of Compound 1-dihydrochloride Form 1. The TGMS analyses recorded for the 2 weeks and 1-month incubation is also along the 3.8% of water (1 molecule of water per molecule of API).

[8] = Polymorph and hydrate screen: physical stability of solid forms (AAC, drying); type: physicochemical; details: 40° C. and 75% RH for 2 days
Protocol: The solids obtained from the various crystallization experiments were analyzed by High Throughput XRPD (HT-XRPD). If relevant, the mother liquors were allowed to evaporate completely, and the remaining solids were analyzed by HT-XRPD. Subsequently, all solids were exposed to accelerated aging conditions for 48 hours at 40° C. and 75% RH (AAC).
From the polymorph screen, four novel diffractograms were identified in addition to the two known forms of Compound 1-dihydrochloride, Form 1 and Form 2. Form 1 was the most abundant solid form found in this polymorph screen. The novel diffractograms were designated Forms 3, 4, 5 and 6. All these forms were found with low frequency and were poorly crystalline. […] The HT-XRPD patterns of the new Forms 3, 4, 5 and 6 are shown in FIG. 12, FIG. 13, FIG. 14, and FIG. 15, respectively.
After completion of the equilibration time, the remaining solids were analyzed by HT-XRPD dry under ambient conditions and dried under vacuum. The mother liquors were analyzed by Karl Fisher titration for water content determination. […] The solutions from these experiments were evaporated under vacuum (200 mBar) and the obtained dried solids analyzed by HT-XRPD. All the solids were then exposed to 40° C. and 75% RH for two days.

In the case of CO/N=C(\C(=O)N[C@@H]1C(=O)N2C(C(=O)[O-])=C(C[N+]3(C)CCCC3)CS[C@H]12)c1csc(N)n1 [Cefepime, cefepime], the “% present, cefepime” value ([1]; 20 hours) is reported as 99%, the MIC50 ([2]; N=10 strains) is reported as 16 µg/mL (≈ 33.3 µM) and the MIC90 ([2]; N=10 strains, read-out: MIC90) is reported as 32 µg/mL (≈ 66.6 µM). For the same molecule, the “MIC Range” value ([2]; N=10 strains, in µg/mL) was 16-32, the “% S” value [3] was 20% and the MIC90 [3] was 64 µg/mL (≈ 133 µM). The MIC50 ([3]; read-out: MIC50) was 32 µg/mL (≈ 66.6 µM), the “% S@8” value [4] was 30.8% and the “MIC Range” value ([4]; 507 isolates non-susceptible to meropenem (MIC>8 μg/mL)) was 1-128. For the same molecule, the MIC50 [4] was 32 µg/mL (≈ 66.6 µM), the MIC90 [4] was 256 µg/mL (≈ 533 µM) and the “% S@8” value [5] was 0%. For the same molecule, the MIC50 [5] was 32 µg/mL (≈ 66.6 µM) and the MIC90 [5] was 256 µg/mL (≈ 533 µM).

Molecule NCCN[C@H]1CC[C@H](CC(=O)N[C@H]2Cc3cccc(C(=O)O)c3OB2O)CC1 [Compound 1-dihydrochloride, (R)-3-(2-(trans-4-(2-aminoethylamino)cyclohexyl)acetamido)-2-hydroxy-3,4-dihydro-2H-benzo[e][1,2]oxaborinine-8-carboxylic acid dihydrochloride] has a solubility at 24 h ([6]; 5 °C, IPA/H2O (40:60), 5° C.) of 271 mg/mL, a solubility at 24 h ([6]; 5 °C, IPA/H2O (50:50), 5° C.) of 217 mg/mL and a solubility at 24 h ([6]; 5 °C, IPA/H2O (60:40), 5° C.) of 129 mg/mL. For the same molecule, the solubility at 24 h ([6]; 5 °C, IPA/H2O (70:30), 5° C.) was 78.6 mg/mL, the solubility at 24 h ([6]; 5 °C, IPA/H2O (80:20), 5° C.) was 28 mg/mL and the solubility at 24 h ([6]; 5 °C, IPA/H2O (90:10), 5° C.) was 4.2 mg/mL. The solubility at 24 h ([6]; 25 °C, IPA/H2O (40:60), 25° C.) was 429 mg/mL, the solubility at 24 h ([6]; 25 °C, IPA/H2O (50:50), 25° C.) was 336 mg/mL and the solubility at 24 h ([6]; 25 °C, IPA/H2O (60:40), 25° C.) was 205 mg/mL. For the same molecule, the solubility at 24 h ([6]; 25 °C, IPA/H2O (70:30), 25° C.) was 101 mg/mL, the solubility at 24 h ([6]; 25 °C, IPA/H2O (80:20), 25° C.) was 41.7 mg/mL and the solubility at 24 h ([6]; 25 °C, IPA/H2O (90:10), 25° C.) was 4.2 mg/mL. For the same molecule, the solubility at 24 h ([6]; 40 °C, IPA/H2O (40:60), 40° C.) was 567 mg/mL, the solubility at 24 h ([6]; 40 °C, IPA/H2O (50:50), 40° C.) was 454 mg/mL and the solubility at 24 h ([6]; 40 °C, IPA/H2O (60:40), 40° C.) was 424 mg/mL. For the same molecule, the solubility at 24 h ([6]; 40 °C, IPA/H2O (70:30), 40° C.) was 189 mg/mL, the solubility at 24 h ([6]; 40 °C, IPA/H2O (80:20), 40° C.) was 81 mg/mL and the solubility at 24 h ([6]; 40 °C, IPA/H2O (90:10), 40° C.) was 5.6 mg/mL. It also gave a solubility at 24 h ([6]; 50 °C, IPA/H2O (40:60), 50° C.) of 714 mg/mL, a solubility at 24 h ([6]; 50 °C, IPA/H2O (50:50), 50° C.) of 528 mg/mL and a solubility at 24 h ([6]; 50 °C, IPA/H2O (60:40), 50° C.) of 440 mg/mL. The solubility at 24 h ([6]; 50 °C, IPA/H2O (70:30), 50° C.) was 235 mg/mL, the solubility at 24 h ([6]; 50 °C, IPA/H2O (80:20), 50° C.) was 102 mg/mL and the solubility at 24 h ([6]; 50 °C, IPA/H2O (90:10), 50° C.) was 7.2 mg/mL. The “Solid form after three days exposure” value ([7]; 5° C./ambient RH, 25° C./60% RH, 30° C./65% RH and 40° C./75% RH, HR-XRPD, starting mixture of Form 1 and Form 2) was “full conversion to Form 1” and the “Solid form upon incubation for extended periods” value ([7]; same four conditions, at least up to 1 month) was “No significant changes in the solid form”.

In the case of NCCN[C@H]1CC[C@H](CC(=O)N[C@H]2Cc3cccc(C(=O)O)c3OB2O)CC1 [Form 6], the “Physical stability upon exposure to AAC” value [8] is reported as “physically unstable; also recorded: conversion to Form 1 was observed; also recorded: converted to Form 1”.

In the case of C[C@@H](O)[C@H]1C(=O)N2C(C(=O)O)=C(S[C@@H]3CN[C@H](C(=O)N(C)C)C3)[C@H](C)[C@H]12 [Meropenem, meropenem], the “% present, meropenem” value ([1]; 24 hours) is reported as 89%, the MIC90 [2] is reported as 128 µg/mL (≈ 334 µM) and the MIC50 ([2]; N=10 strains) is reported as 64 µg/mL (≈ 167 µM). For the same molecule, the “% S@8” value ([2]; N=10 strains) was 0%, the “% S” value [3] was 0% and the MIC50 [3] was 128 µg/mL (≈ 334 µM). The MIC90 [3] was greater than 128 µg/mL, the “% S@8” value [4] was 0% and the MIC50 [4] was 32 µg/mL (≈ 83.4 µM). The MIC90 ([4]; read-out: MIC90) was greater than 128 µg/mL, the “% S@8” value [5] was 36.6% and the MIC50 [5] was 16 µg/mL (≈ 41.7 µM). For the same molecule, the MIC90 ([5]; read-out: MIC90) was greater than 128 µg/mL.

Reference: patent publication US12187752B2, “Solid forms and combination compositions comprising a beta-lactamase inhibitor and uses thereof” (priority 2017, dated 2025)
